Measured values: US10294226B2, “Small molecule inhibitors of the JAK family of kinases” (Janssen Pharmaceutica NV, priority 2016, dated 2019)
≈ marks a conversion by molar mass, not a printed value.

What was measured:
IFNα pSTAT4 (JAK1/TYK2) = IFNα pSTAT4 (JAK1/TYK2) cellular assay, AlphaLISA in PBMCs; assay type: cell-based; conditions: PBMC, IFNα 4 ng/mL
Method: The AlphaLISA assay (based on Alpha Technology from PerkinElmer) was performed by first plating freshly thawed PBMCs (Biological Specialty Corporation) in 384-well plates at 100,000 cells per 6 μL per well in DMEM (Dulbecco's Modified Eagle Medium) containing 10% FBS (fetal bovine serum) and 1,000 I.U./mL penicillin and 1,000 μg/mL streptomycin. The cells were then treated with 2 μL/well of compounds diluted in DMSO at half-log titrated concentrations, with a highest test concentration of 10 μM and 0.5% final DMSO concentration, for thirty minutes at 37° C. Next, the cells were stimulated with 2 μL/well of IFNα (PBL Assay Science Cat. No. 11101-2) at 4 ng/mL for thirty minutes at 37° C. The cellular reactions were terminated by the addition of 2 μL/well of lysis buffer (PerkinElmer Cat. No. ALSU-PST4-A10K) followed by an incubation of five minutes at room temperature. 4 μL/well of acceptor mix (PerkinElmer Cat. No. ALSU-PST4-A10K) was added to the cells and incubated in the dark for one hour at room temperature. Then, 4 μL/well of donor mix (PerkinElmer Cat. No. ALSU-PST4-A10K) was added to the cells and incubated in the dark overnight at room temperature. Finally, the plates were read on a PerkinElmer EnVision for detection of the time-resolved fluorescence signal. The percentage of IFNα-dependent pSTAT4 inhibition was determined at the compound test concentrations; and for each compound, a dose curve was generated and the IC50 was calculated. Compound IC50 was calculated by nonlinear regression, sigmoidal dose response analysis of the half-log dilution titration curve of the compound concentration vs. Alpha signal. The term “Alpha” is defined in the immediately preceding cellular assay description.

[1] = system: GM-CSF pSTAT5 (JAK2/JAK2); test: GM-CSF pSTAT5 (JAK2/JAK2) cellular assay, AlphaLISA in PBMCs; assay type: cell-based; conditions: PBMC, GM-CSF 11 pg/mL
Method: The AlphaLISA assay (based on Alpha Technology from PerkinElmer) was performed by first plating freshly thawed PBMCs (Biological Specialty Corporation) in 384-well plates at 30,000 cells per 4 μL per well in HBSS containing 0.1% IgG-free, protease-free BSA (Jackson ImmunoResearch Cat. No. 001-000-161). The cells were then treated with 2 μL/well of compounds diluted in DMSO at half-log titrated concentrations, with a highest test concentration of 10 μM and 0.5% final DMSO concentration, for thirty minutes at 37° C. Next, the cells were stimulated with 2 μL/well of GM-CSF (R&D Systems Cat. No. 215-GM-050) at 11 pg/mL for fifteen minutes at 37° C. The cellular reactions were terminated by the addition of 2 μL/well of lysis buffer (PerkinElmer Cat. No. ALSU-PST5-A10K) followed by an incubation of five minutes at room temperature. 5 μL/well of acceptor mix (PerkinElmer Cat. No. ALSU-PST5-A10K) was added to the cells and incubated in the dark for one hour at room temperature. Then, 5 μL/well of donor mix (PerkinElmer Cat. No. ALSU-PST5-A10K) was added to the cells and incubated in the dark overnight at room temperature. Finally, the plates were read on a PerkinElmer EnVision for detection of the time-resolved fluorescence signal. The percentage of GM-CSF-dependent pSTAT5 inhibition was determined at the compound test concentrations; and for each compound, a dose curve was generated and the IC50 was calculated. Compound IC50 was calculated by nonlinear regression, sigmoidal dose response analysis of the half-log dilution titration curve of the compound concentration vs. Alpha signal. The term “Alpha” is defined in the IL-2 pSTAT5 (JAK1/JAK3) cellular assay description.

[2] = In vivo intracolonic (i.c.) dosing, plasma and colon concentrations (Protocol 3); parameters: species or system female C57BL/6 mice; key to Plasma Concentration After i.c. Dosing, Mean: ^: Mean was not calculated as the values for all three mice were below the lower limit of quantitation; conditions: mice; for Plasma Concentration After i.c. Dosing, Mean: 5 mg/kg i.c.
Source text: Plasma and colon concentration results were obtained by following Protocol 1 using venipuncture of dorsal metatarsal vein bleed for Compounds (B), (C), and Examples 6 and 11. Plasma and colon concentration results were obtained by following Protocol 2 using retro-orbital bleed for Compounds (A), and Examples 1, and 3-5 and Protocol 2 using venipuncture of the dorsal metatarsal vein for Examples 2, 7-10, and 12. Plasma and colon concentration results were obtained by following Protocol 3 for Examples 1, 3 and 4. These protocols are described below under the heading In vivo Studies.
Intracolonic (IC) dose group: Following anesthesia with isoflurane by inhalation, three non-fasted female C57BL/6 mice were administered the compound intracolonically through a small incision in the abdominal wall using a syringe and needle at a dose of 5 mg/kg as a solution in 20% HPβCD at a dose volume of 1 mL/kg. Blood samples were collected at 0.5, 2, and 4 h post dose via retro-orbital bleed. Blood samples were collected into tubes containing anticoagulant (Heparin-Na) and placed on wet ice. The plasma fraction was separated by centrifugation and frozen at −20° C. for up to 4 h and −80° C. after 4 h unless analyzed shortly after sample collection. Colon samples were collected at 4 h post dose. From 2 cm below the cecum, a 4-cm sample of the colon was dissected, cut open on the longitudinal axis, and the solid contents removed by flushing with 2 mL of saline. The colon was further washed by putting it in 5 mL of saline and shaken for 5 seconds. The colon sample was then patted dry, weighed, and homogenized as 1 part tissue (g) to 4 parts HPLC grade water (mL). Concentrations of the compound in plasma and colon homogenate were determined using a qualified liquid chromatography-triple quadrupole mass spectrometry (LC-MS/MS) method. This protocol was used to evaluate IC dosing of the following test compounds: Examples 1, 3, and 4.

MDCK-MDR1 cell line = test: MDCK-MDR1 permeability assay; assay type: in vitro ADME; conditions: for MDCK-MDR1 Papp(A-B): without elacridar; for MDCK-MDR1 Papp(B-A): basolateral to apical; for Papp(B-A)/Papp(A-B) efflux ratio: MDCK-MDR1, @ 5 μM
Method: Permeability measurements were conducted according to the Cyprotex protocol using the MDCK-MDR1 cell line obtained from the NIH (Rockville, Md., USA). […] The cells in this assay form a cohesive sheet of a single cell layer filing the surface area of the culture dish, also known as a confluent monolayer, and on day four the test compound was added to the apical side of the membrane and the transport of the compound across the monolayer was monitored over a time period of 60 min.
Test compounds were dissolved in DMSO at a concentration of 10 mM. The dosing solutions were prepared by diluting test compound with assay buffer (Hanks Balanced Salt Solution), pH 7.4, at a final concentration of 5 μM. For assessment of apical to basolateral (“A-B”) permeability, buffer was removed from the apical compartment and replaced with test compound dosing solution with or without the permeability glycoprotein (“PgP”, “P-gP”, “Pgp” or “P-gp”) inhibitor elacridar (2 μM). For assessment of basolateral to apical (“B-A”) permeability, buffer was removed from the companion plate and replaced with test compound dosing solution. Incubations were carried out in duplicate at 37° C. in an atmosphere of 5% CO2 with a relative humidity of 95%. […] After incubation for 60 minutes, apical and basolateral samples were diluted and test compounds quantified by LC/MS/MS using an 8-point calibration in the range 0.0039 to 3 μM with appropriate dilution of the samples (receiver dilution factor=1; donor and C0 dilution factor=10). The permeability coefficient (Papp) for each compound was calculated from the following equation: Papp=(dQ/dt)/(C0×S), where dQ/dt is the rate of permeation of the drug across the cells, C0 is the donor compartment concentration at time zero, and S is the area of the cell monolayer.
The percent recovery was measured for all incubation conditions.
Papp(A-B) gives an indication of permeation extent across the cells in this assay, which is envisaged to model the transcellular transport across Pgp-expressing cells, such as Pgp-expressing gastrointestinal tract cells.
The integrity of each monolayer was monitored by examining the permeation of lucifer yellow by fluorimetric analysis.

physchem = conditions: pH 6.5, fassif, thermodynamic from solid

## N#CC[C@H]1CC[C@H](n2c(-c3c[nH]cn3)nc3cnc4[nH]ccc4c32)CC1 [Ex. 2, 2-((1r,4r)-4-(2-(1H-Imidazol-4-yl)imidazo[4,5-d]pyrrolo[2,3-b]pyridin-1(6H)-yl)cyclohexyl)acetonitrile]
IFNα pSTAT4 (JAK1/TYK2)
  IC50: 20.8 nM
[1]
  IC50: 61 nM

## N#CC[C@H]1CC[C@H](n2c(CC(=O)NCC3CC3)nc3cnc4[nH]ccc4c32)CC1 [Ex. 3, 2-(1-((1r,4r)-4-(Cyanomethyl)cyclohexyl)-1,6-dihydroimidazo[4,5-d]pyrrolo[2,3-b]pyridin-2-yl)-N-(cyclopropylmethyl)acetamide]
IFNα pSTAT4 (JAK1/TYK2)
  IC50: 10.1 nM
[2]; Time = 2 h
  Plasma Concentration After i.c. Dosing, Mean: ^
[2]; Time = 4 h
  Plasma Concentration After i.c. Dosing, Mean: ^
[2]
  systemic exposure after i.c. dosing: low systemic exposures
[1]
  IC50: 21.9 nM
MDCK-MDR1 cell line; @ 5 μM, apical to basolateral
  MDCK-MDR1 Papp(A-B): < 0.5 10^−6 cm/sec
MDCK-MDR1 cell line; @ 5 μM
  MDCK-MDR1 Papp(B-A): 16 10^−6 cm/sec
MDCK-MDR1 cell line
  Papp(B-A)/Papp(A-B) efflux ratio: > 33

## CC(C)(O)CNC(=O)Cc1nc2cnc3[nH]ccc3c2n1[C@H]1CC[C@H](CC#N)CC1 [Ex. 1, 2-(1-((1r,4r)-4-(Cyanomethyl)cyclohexyl)-1,6-dihydroimidazo[4,5-d]pyrrolo[2,3-b]pyridin-2-yl)-N-(2-hydroxy-2-methylpropyl)acetamide]
IFNα pSTAT4 (JAK1/TYK2)
  IC50: 59.5 nM
physchem
  solubility: 387 µM (≈ 158 µg/mL)
[2]; Time = 2 h
  Plasma Concentration After i.c. Dosing, Mean: ^
[2]; Time = 4 h
  Plasma Concentration After i.c. Dosing, Mean: ^
[2]
  systemic exposure after i.c. dosing: low systemic exposures
[1]
  IC50: 83.9 nM
MDCK-MDR1 cell line; @ 5 μM, apical to basolateral
  MDCK-MDR1 Papp(A-B): 0.4 10^−6 cm/sec
MDCK-MDR1 cell line; @ 5 μM
  MDCK-MDR1 Papp(B-A): 1.1 10^−6 cm/sec
MDCK-MDR1 cell line
  Papp(B-A)/Papp(A-B) efflux ratio: 3.3

## N#CCC12CCC(NC(=O)Cc3nc4cnc5[nH]ccc5c4n3[C@H]3CC[C@H](CC#N)CC3)(CC1)C2 [Ex. 10, N-(4-(Cyanomethyl)bicyclo[2.2.1]heptan-1-yl)-2-(1-((1r, 4r)-4-(cyanomethyl)cyclohexyl)-1,6-dihydroimidazo[4,5-d]pyrrolo[2,3-b]pyridin-2-yl)acetamide]
IFNα pSTAT4 (JAK1/TYK2)
  IC50: 40.4 nM
physchem
  solubility: 359 µM (≈ 169 µg/mL)
[1]
  IC50: 44.6 nM

## N#CCCNC(=O)Cc1nc2cnc3[nH]ccc3c2n1[C@H]1CC[C@H](CC#N)CC1 [Ex. 4, N-(2-Cyanoethyl)-2-(1-((1r,4r)-4-(cyanomethyl)cyclohexyl)-1,6-dihydroimidazo[4,5-d]pyrrolo[2,3-b]pyridin-2-yl)acetamide]
IFNα pSTAT4 (JAK1/TYK2)
  IC50: 64.7 nM
[2]; Time = 4 h
  Plasma Concentration After i.c. Dosing, Mean: ^
[2]
  systemic exposure after i.c. dosing: low systemic exposures
[1]
  IC50: 119 nM

## N#CC[C@H]1CC[C@H](n2c(CC(=O)NC3CCOCC3)nc3cnc4[nH]ccc4c32)CC1 [Ex. 5, 2-(1-((1r,4r)-4-(Cyanomethyl)cyclohexyl)-1,6-dihydroimidazo[4,5-d]pyrrolo[2,3-b]pyridin-2-yl)-N-(tetrahydro-2H-pyran-4-yl)acetamide]
IFNα pSTAT4 (JAK1/TYK2)
  IC50: 38.1 nM
physchem
  solubility: 198 µM (≈ 83.3 µg/mL)
[1]
  IC50: 28.9 nM
MDCK-MDR1 cell line; @ 5 μM, apical to basolateral, with P-gp inhibitor elacridar (2 μM)
  MDCK-MDR1 P^eapp(A-B): 0.5 10^−6 cm/sec
MDCK-MDR1 cell line; @ 5 μM, apical to basolateral
  MDCK-MDR1 Papp(A-B): < 0.5 10^−6 cm/sec
MDCK-MDR1 cell line; @ 5 μM
  MDCK-MDR1 Papp(B-A): 2.1 10^−6 cm/sec
MDCK-MDR1 cell line
  Papp(B-A)/Papp(A-B) efflux ratio: > 4.5

## CC(C)(C#N)CNC(=O)Cc1nc2cnc3[nH]ccc3c2n1[C@H]1CC[C@H](CC#N)CC1 [Ex. 7, N-(2-Cyano-2-methylpropyl)-2-(1-((1r,4r)-4-(cyanomethyl)cyclohexyl)-1,6-dihydroimidazo[4,5-d]pyrrolo[2,3-b]pyridin-2-yl)acetamide]
IFNα pSTAT4 (JAK1/TYK2)
  IC50: 38.5 nM
physchem
  solubility: 81 µM (≈ 33.8 µg/mL)
[1]
  IC50: 67.3 nM

## N#CC[C@H]1CC[C@H](n2c(CC(=O)NCC3(O)CCC3)nc3cnc4[nH]ccc4c32)CC1 [Ex. 8, 2-(1-((1r,4r)-4-(Cyanomethyl)cyclohexyl)-1,6-dihydroimidazo[4,5-d]pyrrolo[2,3-b]pyridin-2-yl)-N-((1-hydroxycyclobutyl)methyl)acetamide]
IFNα pSTAT4 (JAK1/TYK2)
  IC50: 42.8 nM
[1]
  IC50: 33.8 nM

## N#CC[C@H]1CC[C@H](n2c(CC(=O)NCC3CCOCC3)nc3cnc4[nH]ccc4c32)CC1 [Ex. 6, 2-(1-((1r,4r)-4-(Cyanomethyl)cyclohexyl)-1,6-dihydroimidazo[4,5-d]pyrrolo[2,3-b]pyridin-2-yl)-N-((tetrahydro-2H-pyran-4-yl)methyl)acetamide]
IFNα pSTAT4 (JAK1/TYK2)
  IC50: 39.4 nM
[1]
  IC50: 25.1 nM
MDCK-MDR1 cell line; @ 5 μM
  MDCK-MDR1 Papp(B-A): 2.6 10^−6 cm/sec
MDCK-MDR1 cell line
  Papp(B-A)/Papp(A-B) efflux ratio: > 8.7

## N#CC[C@H]1CC[C@H](n2c(CC(=O)NCC3(O)CC3)nc3cnc4[nH]ccc4c32)CC1 [Ex. 12, 2-(1-((1r,4r)-4-(Cyanomethyl)cyclohexyl)-1,6-dihydroimidazo[4,5-d]pyrrolo[2,3-b]pyridin-2-yl)-N-((1-hydroxycyclopropyl)methyl)acetamide]
IFNα pSTAT4 (JAK1/TYK2)
  IC50: 81.4 nM
[1]
  IC50: 75.4 nM
